Where “and” joins values, the source holds several entries; their conditions need not be identical. Equal values may be shown once.
Tests used:
recombinant SmCB1 = recombinant SmCB1 (Schistosoma mansoni, UniProt Q8MNY2, T185A/T300A); assay: SmCB1 kinetic inhibition assay with fluorogenic substrate Cbz-Phe-Arg-AMC; format: biochemical; conditions: substrate Cbz-Phe-Arg-AMC; for Ki: SmCB1 inhibition Ki, kinetic activity assay, pH 5.5, 37 °C; for SmCB1 inhibition k2nd (second-order rate constant): slow-binding azadipeptide nitriles
Chain of recombinant SmCB1 (Q8MNY2 87-340 T185A/T300A): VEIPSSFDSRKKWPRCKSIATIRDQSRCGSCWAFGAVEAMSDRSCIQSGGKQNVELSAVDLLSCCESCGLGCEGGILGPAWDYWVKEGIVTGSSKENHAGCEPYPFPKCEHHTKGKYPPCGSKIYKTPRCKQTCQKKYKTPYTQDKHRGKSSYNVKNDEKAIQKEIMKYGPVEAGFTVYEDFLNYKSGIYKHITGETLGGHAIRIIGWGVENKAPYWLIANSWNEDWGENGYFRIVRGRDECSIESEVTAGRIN
Method: Inhibition measurements were performed in triplicates in 96-well microplates (100 μL assay volume) at 37 °C. SmCB1 (20–40 pM) was added to a mixture of the fluorogenic substrate Cbz-Phe-Arg-AMC (20 μM) and an inhibitor (0–100 μM) in 0.1 M sodium acetate, pH 5.5, containing 2.5 mM dithiothreitol and 0.1% PEG 6000. The substrate hydrolysis was monitored in an Infinite M1000 microplate reader (Tecan, Männedorf, Switzerland) at excitation and emission wavelengths of 360 and 465 nm, respectively, for up to 15 and 60 min for fast- and slow-binding inhibitors, respectively. […] For slow-binding inhibitors, an observed first-order rate constant kobs was calculated at each inhibitor concentration by fitting the progress curve to the equation P = vst + (vi – vs)(1 – […])/kobs + d, where P is the product formation, vs is the steady-state velocity, t is the reaction time, vi is the initial velocity, and d is the offset. The inhibition constant Ki′ was determined by nonlinear regression using the equation vs/v0 = 1/(1 + [I]/Ki′). The true inhibition constants Ki were then calculated using the equation Ki = Ki′/(1 + [S]/Km), where [S] is the substrate concentration and Km is the Michaelis constant. The apparent second-order rate constant k2nd′ was determined by fitting to the linear equation kobs = k2nd′[I] + koff, where koff is the first-order rate constants for the dissociation of the enzyme–inhibitor complex and the true constant k2nd was calculated by the correction k2nd = k2nd′(1 + [S]/Km). […] In none of the assay systems did the final concentration of DMSO exceed 1.5%.

[1] = test system: S. mansoni newly transformed schistosomula (NTS); assay: Schistosome phenotypic assay; format: cell-based, Schistosoma mansoni; conditions: for Severity score Day 1 / Severity score Day 2 / Severity score Day 3 / Severity score Day 4: 10 μM inhibitor, scale 0 (no effect) to 4 (severe); for Severity score Day 1: 24 h; for Severity score Day 2: 48 h
Method: Newly transformed schistosomula (NTS) of S. mansoni were prepared by mechanically transforming infective larvae (cercariae) as described previously.[70],[71] NTS (200–300 parasites) were incubated in 200 μL of Basch Medium 169 containing 5% FBS, 100 U mL^–1 penicillin, and 100 μg mL^–1 streptomycin at 5% CO2 and 37 °C.[70],[72],[73] Inhibitors were added at the final concentration of 10 μM,[20],[69] and changes in phenotypes were observed every 24 h for up to 4 days. A constrained nomenclature of “descriptors” is used to record the multiple and dynamic changes in movement, shape, and translucence of which the schistosome parasite is capable (Table S3).[70] These descriptors are then converted into an ordinal “severity score” system from 0 (no effect) to 4 (maximum effect), which allows for the relative comparison of compound effects, as described.[74],[75] Images of NTS were captured using a Zeiss Axiovert 40 C inverted microscope (10× objective) and a Zeiss AxioCam MRc digital camera controlled by AxioVision 40 (v. 4.8.1.0) software.

[2] = Cytotoxicity, XTT test, HUVEC; format: cell-based; conditions: human, % viability vs. untreated cells, read-out: Cell line viability after 72 h
Method: (§1) T able S4. […]
(§2) Cell line viability after 72 h (%)a
(§3) Inhibitor 1 µM 10 µM 1 µM 10 µM
(§4) aCytotoxicity of the inhibitors towards human cell lines are expressed as % viability vs. untreated cells. Cells were treated with
(§5) the indicated concentration of the compounds for 72 h and assayed by means of the XTT test (as described previously 12).
(§6) Standard deviation values were within 10% of the mean of tetraplicates. […]

[3] = Cytotoxicity, XTT test, HepG2; format: cell-based; conditions: human, % viability vs. untreated cells, read-out: Cell line viability after 72 h; for viability at 72 h, 1 µM: HepG2, 1 µM; for viability at 72 h, 10 µM: HepG2, 10 µM
Method: as §1, §2, §3, §4, §5, §6

SMILES	Ki (recombinant SmCB1) [nM]	SmCB1 inhibition k2nd (second-order rate constant) (recombinant SmCB1)	Descriptors Day 1 (phenotypic changes) ([1]; 10 µM inhibitor)	Descriptors Day 2 (phenotypic changes) ([1]; 10 µM inhibitor)	Severity score Day 1 [1]	Severity score Day 2 [1]	Severity score Day 3 [1]	Severity score Day 4 [1]	viability at 72 h, 1 µM [2] [%]	viability at 72 h, 10 µM [2] [%]	viability at 72 h, 1 µM [3] [%]	viability at 72 h, 10 µM [3] [%]	Descriptors Day 3 (phenotypic changes) ([1]; 10 µM inhibitor)
CCCCCN(C#N)N(C)C(=O)[C@H](Cc1ccccc1)NC(=O)OCc1ccccc1 [Compound 9a]	6.2 ± 0.5	2.1 10^3 M^-1 s^-1 and 2.1 ± 0.3 10^3 M^-1 s^-1	Deg	Deg	4 and 4/4	4 and 4/4	4	4	104	81	85	78	–
CN(C#N)N(C)C(=O)[C@H](CC1CCCCC1)NC(=O)OCc1ccccc1 [Compound 11a]	4.6 ± 0.5	32.7 ± 2.8 10^3 M^-1 s^-1	R, Unc	Deg	2	4	4	4	92	85	89	109	Deg
